Experimental data: paper PMC4420714 (Peptides, 2015)
Like-named read-outs stand apart in the source and are kept apart here. Values belong to the substance of their own block, whether it stands above or below them.

What was measured:
PAC1-R [1] = target: T1, PAC1-R (Homo sapiens, UniProt P41586); assay: Binding of 125I-PACAP27 to PAC1-R stably transfected NIH 3T3 cells
T1 sequence (P41586 21-468): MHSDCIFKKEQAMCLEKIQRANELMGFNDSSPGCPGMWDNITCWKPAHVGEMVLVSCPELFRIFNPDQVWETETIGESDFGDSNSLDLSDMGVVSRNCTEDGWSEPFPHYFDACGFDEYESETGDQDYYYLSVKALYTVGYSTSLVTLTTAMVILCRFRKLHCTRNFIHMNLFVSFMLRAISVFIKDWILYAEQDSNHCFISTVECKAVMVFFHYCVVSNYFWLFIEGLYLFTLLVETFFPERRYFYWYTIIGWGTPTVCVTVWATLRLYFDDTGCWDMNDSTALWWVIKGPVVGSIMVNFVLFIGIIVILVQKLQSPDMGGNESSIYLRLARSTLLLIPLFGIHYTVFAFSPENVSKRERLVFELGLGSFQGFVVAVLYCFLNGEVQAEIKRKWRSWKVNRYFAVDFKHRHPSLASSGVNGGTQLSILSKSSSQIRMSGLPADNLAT

VPAC1-R [2] = target: T2, VPAC1-R (Homo sapiens, UniProt P32241); assay: [3H]cAMP generation in VPAC1-R/PANC-1 cells; type: cell-based
T2 sequence (P32241 31-457): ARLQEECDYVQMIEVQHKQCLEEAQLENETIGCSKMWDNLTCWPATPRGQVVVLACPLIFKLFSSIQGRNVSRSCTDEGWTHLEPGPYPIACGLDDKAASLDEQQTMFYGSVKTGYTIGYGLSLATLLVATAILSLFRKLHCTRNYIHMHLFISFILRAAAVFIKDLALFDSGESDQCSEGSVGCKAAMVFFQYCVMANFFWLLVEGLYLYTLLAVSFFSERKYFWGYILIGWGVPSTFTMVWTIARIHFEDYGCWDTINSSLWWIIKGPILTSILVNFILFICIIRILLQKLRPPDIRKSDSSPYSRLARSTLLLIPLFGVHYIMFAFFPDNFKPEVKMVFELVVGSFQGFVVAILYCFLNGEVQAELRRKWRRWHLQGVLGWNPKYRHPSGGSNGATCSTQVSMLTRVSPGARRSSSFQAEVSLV

VPAC1-R [3] = target: T2, VPAC1-R; assay: Binding of 125I-VIP to VPAC1-R/PANC-1 cells
VPAC2-R [4] = target: T3, VPAC2-R (Homo sapiens, UniProt P41587); assay: [3H]cAMP generation in VPAC2-R/PANC-1 cells; type: cell-based; settings: for [3H]cAMP VPAC2-R/PANC-1 % max (agonist class): VPAC2-R/PANC-1 cells, relative to PACAP38, up to 1 µM
T3 sequence (P41587 24-438): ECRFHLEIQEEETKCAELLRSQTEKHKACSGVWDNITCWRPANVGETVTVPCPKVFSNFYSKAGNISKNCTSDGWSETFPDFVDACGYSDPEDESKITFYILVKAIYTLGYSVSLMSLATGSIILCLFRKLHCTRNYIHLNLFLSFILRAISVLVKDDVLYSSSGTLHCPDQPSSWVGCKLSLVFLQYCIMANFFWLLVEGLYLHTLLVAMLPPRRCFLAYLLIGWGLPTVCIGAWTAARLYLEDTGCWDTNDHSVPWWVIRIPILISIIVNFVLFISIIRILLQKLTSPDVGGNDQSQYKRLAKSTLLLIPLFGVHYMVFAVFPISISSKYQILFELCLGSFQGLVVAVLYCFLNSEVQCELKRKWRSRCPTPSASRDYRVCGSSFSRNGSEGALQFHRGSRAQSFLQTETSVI

PAC1-R [5] = target: T1, PAC1-R; assay: [3H]cAMP generation in PAC1-R cells; type: cell-based
VPAC2-R [6] = target: T3, VPAC2-R; assay: Binding of 125I-PACAP27 to VPAC2-R/PANC-1 cells; settings: ratio of binding IC50, analog vs native parent peptide
VPAC1-R [7] = target: T2, VPAC1-R; assay: [3H]cAMP generation in T47D cells; type: cell-based; settings: relative to PACAP38, up to 1 µM

- decrease in affinity for VPAC2-R/PANC-1 cells compared to native PACAP38 (or PACAP27, VIP) (VPAC2-R [6]): 2-to-6 fold
Substance: [Aib^16,Ala^17,Lys^34]PACAP38 [Peptide P30]

- decrease in affinity for VPAC2-R/PANC-1 cells compared to native PACAP38 (or PACAP27, VIP) (VPAC2-R [6]): 2-to-6 fold
Substance: [Ala^16,17,D-Lys^38]PACAP38 [Peptide P23]

- decrease in affinity for VPAC2-R/PANC-1 cells compared to native PACAP38 (or PACAP27, VIP) (VPAC2-R [6]): 16–21 fold
Substance: [D-Ser^2,Lys(Palmitoyl)^38]PACAP38 [Peptide P13]

- [3H]cAMP VPAC2-R/PANC-1 % max (agonist class) (VPAC2-R [4]): Ag (1 µM, 35)
- decrease in affinity for VPAC2-R/PANC-1 cells compared to native PACAP38 (or PACAP27, VIP) (VPAC2-R [6]): 50–400 fold
Substance: [Hyp^3,Ala^16,17]PACAP38 [Peptide P20]

- decrease in affinity for VPAC2-R/PANC-1 cells compared to native PACAP38 (or PACAP27, VIP) (VPAC2-R [6]): 16–21 fold
Substance: [Lys(palmitoyl)^38]PACAP38 [Peptide P12]

- decrease in affinity for VPAC2-R/PANC-1 cells compared to native PACAP38 (or PACAP27, VIP) (VPAC2-R [6]): 40–85 fold
Substance: [Me-Asp^3,Aib^16,28,Lys^34,D-Lys^38]PACAP38 [Peptide P33]

Further lines, the substance ahead of its results:

Substance: PACAP27 [reference compound]
- decrease in affinity for PAC1-R cells compared to native PACAP38 (or PACAP27) (PAC1-R [1]): 10 fold
- higher affinity (selectivity) for PAC1-R cells over VPAC2-R/PANC-1 cells (PAC1-R [1]): 2 fold
- lower affinity for PAC1-R cells than VPAC1-R/PANC-1 cells (PAC1-R [1]): 12 fold
- coupling ratio (IC50-binding affinity/EC50-cAMP generation), VPAC1-R/PANC-1 cells (VPAC1-R [2]): 1.2 fold
- maximal increase in cAMP, VPAC1-R/PANC-1 cells (VPAC1-R [2]; over control): 5.0 ± 0.7 fold
- higher affinity than PACAP38 for VPAC1-R/PANC-1 cells (VPAC1-R [3]; binding IC50 ratio): 6 fold
- coupling ratio (IC50-binding affinity/EC50-cAMP generation), VPAC2-R/PANC-1 cells (VPAC2-R [4]): 4.8 fold
- maximal increase in cAMP, VPAC2-R/PANC-1 cells (VPAC2-R [4]; over control): 6.5 ± 2.0 fold
- coupling ratio (IC50-binding affinity/EC50-cAMP generation), PAC1-R cells (PAC1-R [5]): 94 fold
- maximal increase in cAMP, PAC1-R cells (PAC1-R [5]): 4.1 ± 1.5 fold

Substance: [Aib^2]PACAP38 [Peptide P15]
- decrease in affinity for PAC1-R cells compared to native PACAP38 (or PACAP27) (PAC1-R [1]): 11–30 fold
- lower affinity for PAC1-R cells than VPAC2-R/PANC-1 cells (PAC1-R [1]): 2–9 fold

Substance: [Aib^16,28,Ala^17,Lys^34,D-Lys^38]PACAP38 [Peptide P34]
- decrease in affinity for VPAC2-R/PANC-1 cells compared to native PACAP38 (or PACAP27, VIP) (VPAC2-R [6]): 2-to-6 fold

Substance: [D-Ser^2]PACAP38 [Peptide P16]
- decrease in affinity for PAC1-R cells compared to native PACAP38 (or PACAP27) (PAC1-R [1]): 11–30 fold
- decrease in affinity for VPAC1-R/PANC-1 cells compared to native PACAP38 (or PACAP27, VIP) (VPAC1-R [3]): 100–500 fold
- decrease in affinity for VPAC2-R/PANC-1 cells compared to native PACAP38 (or PACAP27, VIP) (VPAC2-R [6]): 15–500 fold
- higher potency for PAC1-R cells compared to VPAC1-R/PANC-1 cells (PAC1-R [5]): 2-to-5 fold
- higher potency for PAC1-R cells compared to VPAC2-R/PANC-1 cells (PAC1-R [5]): 12–140 fold

Substance: [Hyp^3,Aib^16,Ala^17,Lys^34]PACAP38 [Peptide P31]
- decrease in affinity for VPAC2-R/PANC-1 cells compared to native PACAP38 (or PACAP27, VIP) (VPAC2-R [6]): 50–400 fold

Substance: [Iaa^1,D-Ser^2,Ala^22]PACAP38 [Peptide P48]
- [3H]cAMP VPAC2-R/PANC-1 % max (agonist class) (VPAC2-R [4]): Ag (1 µM, 43)
- decrease in affinity for VPAC2-R/PANC-1 cells compared to native PACAP38 (or PACAP27, VIP) (VPAC2-R [6]): 50–400 fold

Substance: [Iaa^1,D-Tyr^2,Ala^22]PACAP38 [Peptide P49]
- decrease in affinity for VPAC2-R/PANC-1 cells compared to native PACAP38 (or PACAP27, VIP) (VPAC2-R [6]): 50–400 fold

Substance: [Iac^1,Ala^16,17,D-Lys^38]PACAP38 [Peptide P29]
- decrease in affinity for VPAC2-R/PANC-1 cells compared to native PACAP38 (or PACAP27, VIP) (VPAC2-R [6]): 2-to-6 fold

Substance: [Me-Lys^15]PACAP27 [Peptide P2]
- [3H]cAMP VPAC1-R/PANC-1 % max (agonist class) (VPAC1-R [2]; VPAC1-R/PANC-1 cells, relative to PACAP38, up to 1 µM): Ag (1 µM, 68)
- decrease in affinity for VPAC1-R/PANC-1 cells compared to native PACAP38 (or PACAP27, VIP) (VPAC1-R [3]; ratio of binding IC50, analog vs native parent peptide): 100–500 fold
- [3H]cAMP VPAC2-R/PANC-1 % max (agonist class) (VPAC2-R [4]): Ag (1 µM, 19)
- [3H]cAMP T47D % max (agonist class) (VPAC1-R [7]): No Act
- decrease in affinity for VPAC2-R/PANC-1 cells compared to native PACAP38 (or PACAP27, VIP) (VPAC2-R [6]): 6–132 fold

Substance: [N-Ac-His^1,Ala^16,17,D-Lys^38]PACAP38 [Peptide P28]
- decrease in affinity for VPAC2-R/PANC-1 cells compared to native PACAP38 (or PACAP27, VIP) (VPAC2-R [6]): 2-to-6 fold
